# Reference: patent publication US5447937A, “CNS active tetrahydrobenzothienopyridines” (SmithKline Beecham p.l.c., priority 1991, dated 1995)
# Assays:
# [1] = test system: Rats; experiment: Geller-Seifter procedure (conflict session, anxiolytic properties); assay type: in vivo, rat; conditions: FR5 conflict session
# Protocol: 1. Geller-Seifter Procedure
# Potential anxiolytic properties have been evaluated using the Geller-Seifter procedure based on that originally described by Geller and Seifter, (1960) Psychopharmacologia, 1,482-492.
# Rats are trained on a variable interval 30 sec schedule (VI30) to press a lever in order to obtain food reward. The 5 min sessions of the VI30 schedule alternate with 2-5 min of a schedule (FR5) in which every 5th lever press is followed by presentation of a food pellet paired with a 0.5 sec mild footshock. The total study lasts approximately 30 mins. Rats typically respond with high rates of lever pressing under the VI30 schedule and low response rates under the FR5 `conflict` session. Anxiolytic drugs increase the suppressed response rates of rats in `conflict` session.
# Drugs are administered intraperitoneally or orally to groups of 3-8 rats 30 min before testing.
# The results are expressed as the percentage increase in square root of the total number of lever presses in the FR5 `conflict` session. Square root transformation is necessary to normalise the data for statistical analysis using parametric methods (ANOVA).
# [2] = test system: Mice; experiment: MES Test (maximal electroshock seizure); assay type: in vivo, mouse; conditions: 100 mg/kg p.o.
# Protocol: The maximal electroshock seizure (MES) test in rodents is one of the most widely used models of human grand mal epilepsy^1. In this model, anticonvulsant agents elevate the threshold to electrically-induced seizures whilst proconvulsants lower the seizure threshold.
# Mice (male, Charles River, U.K. CD-1 strain, 25-30 g) are randomly assigned to groups of 10-20 and dosed orally or intraperitoneally at a dose volume of 10 ml/kg with various doses of compound (1-100 mg/kg) or vehicle. Mice are then subjected at 30 or 60 rain post dose to a variable voltage electroshock (0.1 sec., 50 Hz, sine wave form) via a buccal and a subcutaneous electrode. The mean voltage and standard error required to induce a tonic seizure in 50% (CV50) of the mice in the group is determined by the `up and down` method of Dixon and Mood (1948)^2. Statistical comparisons between vehicle- and drug-treated groups are made using the method of Litchfield and Wilcoxon (1949)^3.
# If a tonic convulsion does occur, then the voltage is decreased, and so on until all the animals in the group have been tested.
# The percentage increase or decrease in CV50 for each group compared to the control is calculated.
# Studies are carried out using a Heathkit shock generator with totally variable control of shock level from 0 to 200 V and voltage steps of 5 V are used.
# Drugs are suspended in 1% methyl cellulose.
# [3] = biological target: rat cerebral cortex membranes ([35S]-TBPS binding); experiment: [35S]-TBPS binding to rat cerebral cortex membranes in vitro; conditions: 2 nM [35S]-TBPS, 5x10^-6 M GABA
# Protocol: 2. [^35 S]-TBPS binding to rat cerebral cortex membranes in vitro
# Pooled rat cerebral cortices are homogenised in 20 volumes of 0.32M sucrose and centrifuged at 1000 g for 20 minutes (4° C.). The supernatant is removed and recentrifuged at 50,000 g (4° C., 20 mins). The P2 pellet is then suspended in 20 volumes of Tris citrate buffer (pH 7.1) and centrifuged at 50,000 g (4° C., 20 mins). This washing step is repeated three times and the pellet finally resuspended in 20 volumes of buffer and stored at -70° C. prior to use.
# The tissue suspension ([…]) is incubated (25° C., 120 mins) with [^35 S]-TBPS (2 nM) in Tris citrate buffer (pH 7.1) containing 0.2M NaCl and 5×10^-6 M GABA. Non-specific binding is measured in the presence of 10^-4 M picrotoxin. Varying concentrations of test drugs (10^-7, 10^-6, 10^-5 and 10^-4 M final concentration) are added in a volume of […]. The total assay volume is […]. Incubation is stopped by rapid filtration using a Skatron cell harvester and radioactivity measured by liquid scintillation spectrometry. IC50 's are calculated as the concentration of test drug to inhibit 50% of specific binding.
SMILES,IC50 [3],responding in the 'conflict' session ([1]; 10 mg/kg p.o.),responding in the 'conflict' session ([1]; 20 mg/kg p.o.),CV50 (voltage inducing tonic seizure in 50% of mice) [2]
"C#CCOC(=O)c1c(C)nc2sc3c(c2c1N)CCC(O)C3 (racemic) [Example 8, (±)-4-Amino-7-hydroxy-2-methyl-5,6,7,8-tetrahydrobenzo[b]thieno[2,3-b]pyridine-3-carboxylic acid, prop-2-ynyl ester]",–,significant increase,–,–
"C#CCCOC(=O)c1c(C)nc2sc3c(c2c1N)CCC(O)C3 (racemic) [Example 9, (±)-4-Amino-7-hydroxy-2-methyl-5,6,7,8-tetrahydrobenzo[b]thieno[2,3-b]pyridine-3-carboxylic acid, but-3-ynyl ester]",–,significant increase,–,–
"COC(=O)c1c(C)nc2sc3c(c2c1N)CCC(O)C3 (racemic) [Example 7, (±)-4-Amino-7-hydroxy-2-methyl-5,6,7,8-tetrahydrobenzo[b]thieno[2,3-b]pyridine-3-carboxylic acid, methyl ester]",–,–,significant increase,–
"C=CCCOC(=O)c1c(C)nc2sc3c(c2c1N)CCC(O)C3 (racemic) [Example 10, (±)-4-Amino-7-hydroxy-2-methyl-5,6,7,8-tetrahydrobenzo[b]thieno[2,3-b]pyridine-3-carboxylic acid, but-3-enyl ester]",–,–,significant increase,–
"CCOC(=O)c1c(C)nc2sc3c(c2c1N(C)C)CCC(OC)C3 (racemic) [Example 19, (±)-4-Dimethylamino-7-methoxy-2-methyl-5,6,7,8-tetrahydrobenzo[b]thieno[2,3-b]pyridine-3-carboxylic acid, ethyl ester]",< 20 µM,–,–,–

# Further lines, with some results ahead:
IC50 [3],SMILES,responding in the 'conflict' session ([1]; 10 mg/kg p.o.),responding in the 'conflict' session ([1]; 20 mg/kg p.o.),CV50 (voltage inducing tonic seizure in 50% of mice) [2]
< 20 µM,"CCOC(=O)c1c(C)nc2sc3c(c2c1N)CCC(O)C3 (racemic) [Example 1, (±)-4-Amino-7-hydroxy-2-methyl-5,6,7,8-tetrahydrobenzo[b]thieno[2,3-b]pyridine-3-carboxylic acid, ethyl ester]",–,significant increase,significant increase
< 20 µM,"CCOC(=O)c1c(C)nc2sc3c(c2c1N)CCC(O)C3 (single isomer, unassigned; (+)) [Example 3, (+)-4-Amino-7-hydroxy-2-methyl-5,6,7,8-tetrahydrobenzo[b]thieno[2,3-b]pyridine-3-carboxylic acid, ethyl ester]",–,–,–
< 20 µM,"CC#CCOC(=O)c1c(C)nc2sc3c(c2c1N)CCC(O)C3 (racemic) [Example 4, (±)-4-Amino-7-hydroxy-2-methyl-5,6,7,8-tetrahydrobenzo[b]thieno[2,3-b]pyridine-3-carboxylic acid, but-2-ynyl ester]",–,significant increase,–
< 20 µM,"Cc1nc2sc3c(c2c(N)c1C(=O)OCC1CCC1)CCC(O)C3 (racemic) [Example 5, (±)-4-Amino-7-hydroxy-2-methyl-5,6,7,8-tetrahydrobenzo[b]thieno[2,3-b]pyridine-3-carboxylic acid, cyclobutylmethyl ester]",–,–,–
< 20 µM,"Cc1nc2sc3c(c2c(N)c1C(=O)OCC1CC1)CCC(O)C3 (racemic) [Example 6, (±)-4-Amino-7-hydroxy-2-methyl-5,6,7,8-tetrahydrobenzo[b]thieno[2,3-b]pyridine-3-carboxylic acid, cyclopropylmethyl ester]",–,significant increase,–
